Among the data in paper PMC7887271, “Fast acting allosteric phosphofructokinase inhibitors block trypanosome glycolysis and cure acute African trypanosomiasis in mice” (Nature Communications, 2021) are IC50 and EC50 values, retold here.

The structures appear in SMILES notation. Where “and” joins values, the source holds several entries; their conditions need not be identical. Identical values can stand only once.

As a reminder, the IC50 is the concentration that gives 50% inhibition. In general, EC50 refers to the midpoint of the concentration-response curve.

Test [1] deals with T1, T. brucei phosphofructokinase (TbPFK) (Trypanosoma brucei brucei, UniProt O15648).
T1 construct: made in house; host or cells: Escherichia coli C41 (pET28a, codon optimised gene)
T1 sequence (O15648 1-487): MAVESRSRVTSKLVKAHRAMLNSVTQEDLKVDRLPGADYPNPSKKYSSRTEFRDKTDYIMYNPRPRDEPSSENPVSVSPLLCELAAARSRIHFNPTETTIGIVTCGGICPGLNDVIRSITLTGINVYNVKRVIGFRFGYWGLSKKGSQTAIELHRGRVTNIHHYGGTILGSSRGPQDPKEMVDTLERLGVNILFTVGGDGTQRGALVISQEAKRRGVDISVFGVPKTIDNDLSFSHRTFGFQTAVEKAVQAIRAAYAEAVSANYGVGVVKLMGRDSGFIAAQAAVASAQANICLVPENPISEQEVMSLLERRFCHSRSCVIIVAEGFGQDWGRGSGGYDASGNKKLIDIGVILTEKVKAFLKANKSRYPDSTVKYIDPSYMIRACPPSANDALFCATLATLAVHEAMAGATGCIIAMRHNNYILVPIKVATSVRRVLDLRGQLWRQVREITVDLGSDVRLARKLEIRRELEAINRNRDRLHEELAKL
Description: ADP-Glo assay for measuring PFK inhibition. The class given is biochemical. On the procedure: Parasite enzyme kinetic data were measured using N-terminally His6-tagged TbPFK expressed in Escherichia coli C41 cells, using a codon optimised gene inserted in a pET28a vector (Supplementary Methods 1). Recombinant human PFKs were expressed in PFK-deficient Saccharomyces cerevisiae. PFK enzyme inhibition was measured using an ADP-Glo^TM assay (Promega) in a 96-well plate format (Supplementary Methods 2.1), using a Spectramax© M5 Multimode Plate Reader to measure luminescence values which were converted to ADP concentrations. IC50 values were determined using a sigmoidal curve fitting algorithm in Kaleidagraph 4 (Supplementary Fig. 1). Mode of action studies were carried out using a linked enzyme assay coupling the forward reaction of TbPFK to the M1 isoform of human pyruvate kinase followed by lactate dehydrogenase. The change in UV absorbance at 340 nm resulting from the conversion of NADH to NAD^+ was measured at 25 °C in ‘kinetic mode’ on a Spectramax© M5 Multimode plate reader. Initial velocities were plotted against substrate concentration to give curves showing non-competitive inhibition (Supplementary Fig. 2). An alternative linked enzyme assay was developed to control for the potential inhibitory activity of ATP on human PFK (Supplementary Methods 2.3).
The ADP-Glo™ end-point assay kit manufactured by Promega (cat. No. V9102) was used to measure ADP produced in the phosphofructokinase reaction:
Following this kinase reaction, the addition of a reagent results in any unused background ATP being removed and the reaction is sequestered. A second reagent is then added to convert the remaining ADP to ATP which is coupled to the luciferase/luciferin reaction to produce light. ‘Ultrapure’ ATP and ADP from Promega were used to reduce background noise. All reagents additional to those provided in the Promega ADP-Glo™ kit were purchased from Sigma-Aldrich.
The assay buffer comprised 50 mM triethanolamine (TEA), 10 mM MgCl2, 5 mM KCl, 0.1% w/v bovine serum albumin (BSA), 0.005% Tween-20, 1% DMSO, pH 7.4. A 3-fold serial dilution of 250x inhibitor stocks was carried out in 100% DMSO. 2 µl of these dilutions was added to 198 µl assay buffer and mixed well using a multichannel pipette. […] Concentration ranges of inhibitor compounds were 40 - 0.006 µM (final concentration, 1% DMSO). The PFK reaction in the presence of inhibitor was carried out using 10 µl of 1 µg/ml PFK (final concentration 0.4 µg/ml) which was added to 10 µl of the 1% DMSO inhibitor compound serial dilutions in a white, non-binding 96-well plate (Greiner BioOne 655904). CTCB-001 was used as a positive control at a final concentration of 5 µM. Assay buffer containing 1% DMSO was added instead of inhibitor compound for the negative control. The protein/inhibitor mixture was incubated for 10 minutes at room temperature (RT). The kinase reaction was started by adding a 5x ATP/F6P stock in assay buffer (final concentrations 0.5 mM F6P and 0.1 mM ATP). Plates were then sealed, centrifuged at 560 x g for 30 seconds and incubated at RT for 30 minutes. 25 µl of ‘ADP-Glo™ Reagent’ was then added to each well, mixed using a multichannel pipette and incubated at room temperature for 40 minutes. 50 µl of ‘Kinase Detection Reagent’ was added and incubated for 50 minutes at RT. The luminescence was recorded using a Spectramax© M5 Multi-mode Plate Reader (Molecular Devices) in single-point mode, with an integration time of 750 milliseconds. The luminescence values were converted to ADP concentration using a standard calibration curve for ADP. The resulting ADP concentrations were plotted as a function of inhibitor compound concentration using Kaleidagraph 4.0 software. The data were analysed using non-linear regression and a sigmoidal curve was fitted (Supplementary Figure 1) to determine the IC50. Kaleidagraph 4.0 uses the Levenberg-Marquardt algorithm in an iterative procedure to fit non-linear curves. […] The slope of the curve at the midpoint (m4) was set to 1.

The test system of test [2] is bloodstream form of T. brucei strain Lister 427. Description: T. b. brucei 427 growth inhibition assay (LILiT, Alamar Blue). The class given is cell-based. The conditions noted are these: Trypanosoma brucei, 72 h, read-out: EC50 (µM) in vitro parasite killing of bloodstream form T. brucei Lister 427 (Tbb EC50), 72 h, Alamar Blue. Here is the method: The ‘in vitro’ parasite killing assay used the BSF of the non-human pathogenic subspecies T. b. brucei, strain Lister 427, cultured in HMI-9 medium containing 10% foetal bovine serum. A second cell line, T. b. brucei GVR35-Luc2 which constitutively expresses firefly luciferase was grown in Modified HMI-9 plus 20% foetal calf serum supplemented with 20% Serum Plus (Sigma) and 0.15 μg mL^−1 puromycin. Both strains of trypanosomes were cultured in T-25 vented cap flasks at 37 °C and 5% CO2.
The ‘in vitro’ parasite killing assay used the bloodstream-form of the non-human pathogenic subspecies T. b. brucei, strain Lister 427 (a gift from Professor Keith Matthews) which was cultured in HMI-9 medium containing 10% fetal bovine serum (FBS). A second cell line, T. b. brucei GVR35-Luc2 which constitutively expresses firefly luciferase (5) was grown in Modified HMI-9 plus 20% fetal calf serum (FCS) supplemented with 20% Serum Plus (Sigma) and 0.15 μg/ml puromycin as described previously (5). Both strains of trypanosomes were cultured in T-25 vented cap flasks at 37 °C and 5% CO2.
Growth inhibition tests of bloodstream-form T. b. brucei Lister 427 were carried out using the LILiT (long incubation low inoculation test) method (6). The parasites were cultured in complete HMI-9 medium containing 10% FBS in 96-well plates (Greiner Inc.) with approximately 2500 trypanosomes per well. A 3-fold dilution series (in the range from 45 µM – 0.020 µM) of the inhibitor compounds were prepared in the plate; the maximal concentration of DMSO was 0.45%. After 72 hours of incubation at 37 °C and 5% CO2, 50 µl Alamar Blue (0.2% diluted with Dulbecco’s-phosphate buffered saline (D-PBS, Sigma) was added to each well and plates were incubated at 37 °C and 5% CO2 for 4 hours. Fluorescence was read on the BMG multiplate reader using an excitation wavelength of 530 nm and an emission wavelength of 590 nm.
A general note: Resazurin is reduced to fluorescent resorufin, in cell work by metabolically active cells.

A further test deals with T2, TbPFK (Trypanosoma brucei brucei, UniProt O15648).
T2 construct: made in house; host or cells: Escherichia coli C41 (pET28a, codon optimised gene)
T2 sequence (O15648 1-487): T1 sequence (O15648 1-487)
The note with it: amidosulfonamide series; cited from earlier work.

As for `O=C(Cc1ccc(Cl)c(Cl)c1)Nc1ccc(S(=O)(=O)Nc2ccon2)cc1` [CTCB-001], the IC50 in test [1] (Average IC50 (µM), source data for Fig. 2 and Table 1) is 0.25 µM; in test [1] (IC50 (µM), single dated measurement, source data), 194 nM (2×) and 221 nM and 189 nM and 230 nM and 436 nM and 223 nM and 261 nM (2×); at TbPFK, approximately 200 nM. For the same molecule, in test [2], the EC50 came to 20.2 ± 2.1 µM.
